In article PMC4222603, “Dual inhibition of HIV-1 replication by integrase-LEDGF allosteric inhibitors is predominant at the post-integration stage” (Retrovirology, 2013):

Legend:
[1] = molecular target: T1, IN strand transfer activity (Human immunodeficiency virus type 1 group M subtype B, UniProt P12497); test: IN strand transfer ELISA assay; format: biochemical, HIV-1
T1 construct: loaded on a Superdex 200 16/600 PG column (for full length IN); made in house
Method: IN strand transfer ELISA assay has been adapted from. […] 16 μL of IN mixture (20 mM HEPES pH 7.5, 10 mM MgCl2, 1 mM DTT, 0.50 μM His6-IN) was added. […] The reaction was stopped by addition of 60 μL stop mixture (20 mM Tris–HCl pH 7.6, 0.4 M NaCl, 10 mM Na2EDTA, 0.1 mg/mL salmon sperm DNA) and the volume transferred to Reacti-Bind high-binding capacity streptavidin-coated white plates (Thermo Scientific Pierce). After 1 h incubation at room temperature under gentle shaking, integrase and unjoined DNA were removed by three washes with 200 μL wash solution 1 (30 mM NaOH, 0.2 M NaCl, 1 mM Na2EDTA). 100 μL of 2000-fold diluted HRP-conjugated anti-DIG Fab (Roche Applied Science) was added and the plate was incubated for 1 h at 37°C. Unbound antibody was removed with wash solution 2 (PBS pH 7.4, 0.05% Tween-20, 0.1% bovine serum albumin), 100 μL of SuperSignal Femto ELISA substrate (Thermo Scientific Pierce) was added and chemiluminescence was immediately read in a PHERAstar Plus with LUM-plus module. The signal, converted to % inhibition, was analyzed by fitting a sigmoidal dose–response curve to determine IC50 and the inhibition plateau.

in vitro = format: cell-based; conditions: human
Method: Growth inhibition was monitored in a proliferating human T-cell line (MT-4) with different concentrations of compounds. ATP levels were quantified using the CellTiter-Glo® luminescent reagent (Promega) to measure the ability of a compound to inhibit cell growth, an indication of the compound’s cytotoxicity. Cytotoxicity was evaluated at either day 2 or day 5.

[2] = system: NL4-3 RT M41L, D67N, T69N, K70R, T215F, K219E; test: Antiviral assay on NRTI-resistant virus; format: cell-based, HIV-1; conditions: ratio EC50 resistant virus / wt virus
NL4-3 RT K103N, Y181C = test: Antiviral assay on NNRTI-resistant virus; format: cell-based, HIV-1; conditions: ratio EC50 resistant virus / wt virus
[3] = system: HIV-1 proviral DNA (late reverse transcription product, integrated DNA); test: Quantification of viral cDNA by real-time PCR in infected MT4 cells; format: cell-based
Method: Prior to infection, viral stocks were treated 1 h at 37°C with 100 U per mL of DNAseI (Roche Applied Science). MT4 cells (6x10^6) were infected with virus at MOI = 0.001. At 7 h, 24 h and 48 h post-infection, cells were harvested, washed twice in PBS and DNA was extracted using the QIAamp Blood DNA Minikit (Qiagen). Quantifications of viral DNA were performed by real-time PCR using the LightCycler 480 system (Roche Applied Science). Primers, probes, and PCR run conditions were described previously. The copy number of HIV-1 late reverse transcription product (LRT) was determined using standard curves obtained by amplification of cloned DNA containing the matched sequences. The copy number of integrated HIV-1 DNA was determined in reference to a standard curve generated by concomitant two-stage PCR amplification of a serial dilution of the standard HeLa HIVR7-Neo cell DNA [59]. Copy numbers of each viral form were normalized with the number of cells obtained by the quantification by PCR of the β-globin gene according to the manufacturer instructions (Roche Applied Science).

HIV-1 NL4-3 wt = format: cell-based
viral protease = viral protease (Human immunodeficiency virus type 1 group M subtype B, UniProt P12497); test: Viral protease inhibition (unpublished data); format: biochemical, HIV-1
[4] = system: panel of virus mutants in an NL4-3 background resistant to INSTIs and other classes of ARV drugs; conditions: EC50 on resistant virus / EC50 on wt
IN-CCD wt = IN-CCD wt (Human immunodeficiency virus type 1 group M subtype B, UniProt P12497, F1332K)

Cc1nc2c(c(-c3ccc4c(c3)CCCO4)c1C(OC(C)(C)C)C(=O)O)CCCC2 (centres unmarked) [Mut101, 2-(tert-butoxy)-2-[4-(3,4-dihydro-2H-1-benzopyran-6-yl)-2-methyl-5,6,7,8-tetrahydroquinolin-3-yl]acetic acid]
IC50 ([1]; Table 1, ELISA, read-out: IN ST IC50): 170 nM
IN ST plateau (%) ([1]; inhibition plateau, concentrations up to 100 μM): 66%
CC50 (in vitro): > 50000 nM
EC50 fold change NRTIs [2]: 1
EC50 fold change NNRTIs (NL4-3 RT K103N, Y181C): 1
Integration of the proviral DNA (qPCR) [3]: inhibited the integration of the proviral DNA
Production of proviral DNA at reverse transcription (qPCR) [3]: not the production of proviral DNA at reverse transcription
Infectivity of NL4-3 wt virus produced in presence of compound (HIV-1 NL4-3 wt): inactivated
Inhibition of viral protease (viral protease): does not inhibit viral protease
EC50 fold change (FC) ratio against all resistant viruses [4]: ≤ 1
Kd (IN-CCD wt): 120 nM
